This note sets out measurements from ChEMBL document CHEMBL1255545, “Synthesis and evaluation of 1,2,4-triazolo[1,5-c]pyrimidine derivatives as A2A receptor-selective antagonists” (Bioorg Med Chem Lett, 2010).

The target of the first assay is T1, Adenosine receptor A1 (Homo sapiens) (UniProt P30542).
T1 sequence (whole entry): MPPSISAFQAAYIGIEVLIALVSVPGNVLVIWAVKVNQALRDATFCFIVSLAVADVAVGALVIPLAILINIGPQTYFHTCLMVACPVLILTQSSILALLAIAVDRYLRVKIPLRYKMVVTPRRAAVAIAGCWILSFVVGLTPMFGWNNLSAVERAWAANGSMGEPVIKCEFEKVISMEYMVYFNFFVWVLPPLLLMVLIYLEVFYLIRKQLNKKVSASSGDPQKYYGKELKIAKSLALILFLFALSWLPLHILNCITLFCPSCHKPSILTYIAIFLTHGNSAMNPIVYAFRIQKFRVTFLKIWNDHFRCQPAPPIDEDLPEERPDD
The assay is described as follows: Displacement of [3H]CCPA from human adenosine A1 receptor expressed in CHO cells at 10 uM. In kind it is cell-based. Background: Displacement assays read how much labelled ligand stays bound in the presence of the test substance.
Turning to `CCOc1ccc(CCCn2ncc3c2nc(N)n2nc(-c4ccco4)nc32)cc1`, the inhibition came to 4.8%.

`Nc1nc2c(cnn2CCCc2ccc(O)cc2)c2nc(-c3ccco3)nn12` yielded an inhibition of 44.3%.

Molecule `CC(C)Oc1ccc(CCCn2ncc3c2nc(N)n2nc(-c4ccco4)nc32)cc1` yielded an inhibition of 35%.

The molecule `C=CCOc1ccc(CCCn2ncc3c2nc(N)n2nc(-c4ccco4)nc32)cc1` displayed an inhibition of 32.8%.

`COc1ccc(CCCn2ncc3c2nc(N)n2nc(-c4ccco4)nc32)cc1`: the inhibition came to 38.4%.

The molecule `CCC(C)Oc1ccc(CCCn2ncc3c2nc(N)n2nc(-c4ccco4)nc32)cc1` (stereo not drawn) had an inhibition of 16.8%.

For `CS(=O)(=O)OCCOc1ccc(CCCn2ncc3c2nc(N)n2nc(-c4ccco4)nc32)cc1`, the inhibition came out at 27.8%.

Regarding `Nc1nc2c(cnn2CCCc2ccc(OCCF)cc2)c2nc(-c3ccco3)nn12`, the inhibition was found to be 42.7%.

In the case of `Nc1nc2c(cnn2CCCc2ccc(OCCO)cc2)c2nc(-c3ccco3)nn12`, the inhibition stood at 47.9%.

Take `CCCOc1ccc(CCCn2ncc3c2nc(N)n2nc(-c4ccco4)nc32)cc1`: the inhibition came out at 17.9%.

With `C=CCCOc1ccc(CCCn2ncc3c2nc(N)n2nc(-c4ccco4)nc32)cc1`, the inhibition came out at 25.5%.

As to `Nc1nc2c(cnn2CCCc2ccc(O/C=C/c3ccccc3)cc2)c2nc(-c3ccco3)nn12`, the inhibition turned out to be 7.3%.

`Nc1nc2c(cnn2CCCc2ccc(OCCc3ccccc3)cc2)c2nc(-c3ccco3)nn12` returned an inhibition of 6.9%.

For a further assay, the target named is Adenosine receptor A2a (Homo sapiens, UniProt P29274). The assay is described as follows: Displacement of [3H]CGS21680 from human adenosine A2A receptor expressed in HEK293 cells at 10 uM. The assay is classed as cell-based.
Chain of Adenosine receptor A2a (P29274 whole entry): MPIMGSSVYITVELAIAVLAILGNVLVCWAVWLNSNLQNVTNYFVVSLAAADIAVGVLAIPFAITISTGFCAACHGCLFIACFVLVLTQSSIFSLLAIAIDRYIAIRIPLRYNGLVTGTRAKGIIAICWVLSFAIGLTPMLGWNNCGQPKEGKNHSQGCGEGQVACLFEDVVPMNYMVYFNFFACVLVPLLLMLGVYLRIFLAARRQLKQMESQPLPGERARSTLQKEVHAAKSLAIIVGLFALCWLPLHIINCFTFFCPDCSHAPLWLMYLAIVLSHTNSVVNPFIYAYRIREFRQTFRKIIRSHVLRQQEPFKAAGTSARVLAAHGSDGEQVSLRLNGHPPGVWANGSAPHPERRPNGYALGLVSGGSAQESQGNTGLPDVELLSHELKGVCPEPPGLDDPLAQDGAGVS
`CCOc1ccc(CCCn2ncc3c2nc(N)n2nc(-c4ccco4)nc32)cc1`: the Ki came to 43.9 nM.

Consider `Nc1nc2c(cnn2CCCc2ccc(O)cc2)c2nc(-c3ccco3)nn12`, for which the Ki came to 48.3 nM.

In the case of `CC(C)Oc1ccc(CCCn2ncc3c2nc(N)n2nc(-c4ccco4)nc32)cc1`, affinity was put at a Ki of 13.3 nM.

`C=CCOc1ccc(CCCn2ncc3c2nc(N)n2nc(-c4ccco4)nc32)cc1` showed a Ki of 9 nM.

`CCC(C)Oc1ccc(CCCn2ncc3c2nc(N)n2nc(-c4ccco4)nc32)cc1` (stereo not drawn) had a Ki of 22.1 nM.

Molecule `CS(=O)(=O)OCCOc1ccc(CCCn2ncc3c2nc(N)n2nc(-c4ccco4)nc32)cc1` yielded a Ki of 45.7 nM.

Molecule `Nc1nc2c(cnn2CCCc2ccc(OCCF)cc2)c2nc(-c3ccco3)nn12` had a Ki of 12.4 nM.

`Nc1nc2c(cnn2CCCc2ccc(OCCO)cc2)c2nc(-c3ccco3)nn12`: the affinity corresponds to a Ki of 23.9 nM.

`CCCOc1ccc(CCCn2ncc3c2nc(N)n2nc(-c4ccco4)nc32)cc1` gave a Ki of 11.7 nM.

`C=CCCOc1ccc(CCCn2ncc3c2nc(N)n2nc(-c4ccco4)nc32)cc1` came in with a Ki of 14.4 nM.

In turn, `Nc1nc2c(cnn2CCCc2ccc(O/C=C/c3ccccc3)cc2)c2nc(-c3ccco3)nn12` had a Ki of 308 nM.

The molecule `Nc1nc2c(cnn2CCCc2ccc(OCCc3ccccc3)cc2)c2nc(-c3ccco3)nn12` had a Ki of 78.9 nM.

A further assay has as its target T2, Adenosine receptor A3 (Homo sapiens) (UniProt P0DMS8).
T2 sequence (whole entry): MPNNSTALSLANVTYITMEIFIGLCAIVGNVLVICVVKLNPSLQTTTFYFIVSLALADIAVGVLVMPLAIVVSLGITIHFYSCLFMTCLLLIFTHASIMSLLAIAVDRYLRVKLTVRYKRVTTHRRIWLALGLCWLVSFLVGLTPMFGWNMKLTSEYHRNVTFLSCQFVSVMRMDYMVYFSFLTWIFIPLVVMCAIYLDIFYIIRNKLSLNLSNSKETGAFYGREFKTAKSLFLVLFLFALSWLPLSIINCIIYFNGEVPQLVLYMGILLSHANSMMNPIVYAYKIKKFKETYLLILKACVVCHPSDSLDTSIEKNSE
The assay is described as follows: Displacement of [125I]I-AB-MECA from human adenosine A3 receptor expressed in CHO cells at 10 uM. In kind it is cell-based.
As for `Nc1nc2c(cnn2CCCc2ccc(O)cc2)c2nc(-c3ccco3)nn12`, the inhibition worked out at 34.2%.

The molecule `CC(C)Oc1ccc(CCCn2ncc3c2nc(N)n2nc(-c4ccco4)nc32)cc1` displayed an inhibition of 72.8%.

As for `C=CCOc1ccc(CCCn2ncc3c2nc(N)n2nc(-c4ccco4)nc32)cc1`, the inhibition worked out at 62.5%.

Molecule `COc1ccc(CCCn2ncc3c2nc(N)n2nc(-c4ccco4)nc32)cc1` showed an inhibition of 67.4%.

For the molecule `CCC(C)Oc1ccc(CCCn2ncc3c2nc(N)n2nc(-c4ccco4)nc32)cc1` (stereo not drawn), the inhibition is 41.9%.

In the case of `CS(=O)(=O)OCCOc1ccc(CCCn2ncc3c2nc(N)n2nc(-c4ccco4)nc32)cc1`, the inhibition worked out at 62.4%.

`Nc1nc2c(cnn2CCCc2ccc(OCCF)cc2)c2nc(-c3ccco3)nn12` came in with an inhibition of 59.6%.

The molecule `Nc1nc2c(cnn2CCCc2ccc(OCCO)cc2)c2nc(-c3ccco3)nn12` returned an inhibition of 57.8%.

The molecule `CCCOc1ccc(CCCn2ncc3c2nc(N)n2nc(-c4ccco4)nc32)cc1` yielded an inhibition of 36.5%.

For `C=CCCOc1ccc(CCCn2ncc3c2nc(N)n2nc(-c4ccco4)nc32)cc1`, the inhibition worked out at 44.8%.

In turn, `Nc1nc2c(cnn2CCCc2ccc(O/C=C/c3ccccc3)cc2)c2nc(-c3ccco3)nn12` showed an inhibition of 17.8%.

Turning to `Nc1nc2c(cnn2CCCc2ccc(OCCc3ccccc3)cc2)c2nc(-c3ccco3)nn12`, the inhibition is 18.2%.

The next assay addresses T3, Adenosine receptor A3 (Homo sapiens, UniProt P0DMS8).
T3 sequence (P0DMS8 whole entry): T2 sequence (whole entry)
The assay can be described thus: Displacement of [125I]I-AB-MECA from human adenosine A3 receptor expressed in CHO cells. The assay is classed as cell-based.
Turning to `CCOc1ccc(CCCn2ncc3c2nc(N)n2nc(-c4ccco4)nc32)cc1`, the affinity corresponds to a Ki of 4.94 µM.

For orientation: inhibition means the change of the read-out against control, counted positive when it falls. A high value points to a response far below the control. In general, Ki refers to the dissociation constant of the complex between target and ligand, obtained from inhibition or displacement. Low readings indicate tighter binding, high ones weaker binding.
